Results as given in PubChem BioAssay AID1918947 (Molecular Pharmacology Branch, DTP, NCI, 2023).
pIC50: −log10 of the molar value. Several values for one entry are separate records, joined by “and”; a condition that tells them apart may be missing. Equal values may be shown once.

Test system: A498 complex spheroid viability
Assay: Anticancer human tumor A498 cell line growth inhibition;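 also: spheroids exposed to agents for seven days before readout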;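 as to viability, T/C: 100% = DMSO vehicle-treated spheroids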
Settings: for viability, T/C: stronger effect = lower value
Source text: Multicellular complex tumor spheroid response to LSD1 Inhibitor Iadademstat in combination with a variety of drugs and investigational agents in selected tumor cell lines
The current study was undertaken to assess response to LSD1 inhibitors in combination with standard-of-care drugs and investigational agents in solid tumor complex spheroid models as well as in the K-562 leukemia. Complex spheroids include a stromal component modeled by human endothelial cells (HUVEC) and fibroblasts modeled by human mesenchymal stem cells (MSCs). The concentration ranges selected for each drug and investigational agent were based upon clinically achievable concentrations if the clinical Cmax of the agent was known.
Compounds. The drugs and investigational agents used in this study are listed on Table 1. All of the agents used, including staurosporine (NSC755774) and gemcitabine (NSC613327), were obtained from the Developmental Therapeutics Program, NCI. FDA-approved anticancer drugs are available from the NCI at http://dtp.nci.nih.gov/branches/dscb/oncology_drugset_explanation.html. Drugs and investigational agents were >95% pure by proton nuclear magnetic resonance (NMR) and liquid chromatography/mass spectrometry (LC/MS). Stock solutions were prepared at 400x in DMSO, stored at -70 degrees C, and diluted in fresh medium prior to their use. The final concentration of DMSO in cell culture wells never exceeded 0.25% (v/v). The FDA-approved anticancer drug set is available from the Developmental Therapeutics Program at https://dtp.cancer.gov/organization/dscb/obtaining/available_plates.htm. All drugs and investigational agents were tested over a range starting from a high concentration at or near the clinical Cmax and decreasing in half-log increments. If the clinical Cmax for an agent had not been determined, the highest concentration tested was 10 microM.
Cell Lines. The patient-derived cancer cell (PDC) lines: 292921-168-R-J2-PDC, K24384-001-R-PDC, and 521955-158-R2-J5-PDC pancreatic carcinomas, 556581-035-R-J1 ovarian carcinoma, 324938-238-R-J1-PDC, 855422-203-R-J1-PDC and 883617-216-R-J1-PDC urothelial bladder carcinomas, 743489-274-T-PDC renal cell carcinoma, 138582-R-J1 Merkel cell tumor, K60290-347-R-J1 and K57222-313-R-J1-PDC glioblastomas, 653999-131-R-J2-PDC, LG0703-F948-PDC, and 349418-098-R-PDC non-small cell lung carcinomas, 885512-296-R-J2-PDC, 171881-019-R-J1-PDC breast carcinomas and 186277-243-T-J2-PDC and 233499-124-R-J2-PDC colon carcinomas were obtained from the NCI Patient-Derived Models Repository (PDMR, https://pdmr.cancer.gov). The established cell lines NCI/ADR-RES (RRID:CVCL_14520 and OVCAR-5 (RRID:CVCL_1628) ovarian carcinomas, 786-O (RRID:CVCL_1051) and A498 (RRID:CVCL_A498) renal cell carcinoma, NCI-H211 (ATCC, cat. CRL-5824; RRID:CVCL_1529), NCI-H196 (ATCC, cat. CRL-5823, RRID:CVCL_1509), SW 1271 (ATCC, cat. CRL-2177, RRID:CVCL_1716) and NCI-H1876 (ATCC, cat. CRL-5902, RRID:CVCL_1503) small cell lung carcinomas, MDA-MB-231 (RRID:CVCL_0062) and MDA-MB-468 (RRID:CVCL_0419)breast carcinomas (10-12). Pooled donor human umbilical vein endothelial cells (HUVEC, Lonza, cat. CC-2519) and human mesenchymal stem cells (hMSC, Lonza, cat. PT-2501) were purchased from Lonza (Walkersville, MD).
Cell Culture. All cells were maintained in an incubator at 37 degrees C and 5% CO2 with 95% humidity. The PDC lines were cultured according to standard operating procedures established by the NCI PDMR (https://pdmr.cancer.gov). Briefly all PDCs were thawed and cultured in Matrigel-coated flasks prepared with a working solution of 1X Ham's F-12 nutrient mix, without supplementation (Invitrogen, Waltham, MA, cat. 11765054), 100 U/mL penicillin-streptomycin (Invitrogen, cat. 15140122), and 2.5% Matrigel (Corning Inc., Corning, NY, cat. 354248) for the first three passages. […]

[1] = curve of first compound, second compound 0.1 µM
[2] = curve of first compound, second compound 0.316 µM
[3] = curve of first compound, second compound 1 µM
[4] = curve of first compound, second compound 3.16 µM
[5] = curve of first compound, second compound 10 µM

Compound: CC1COCCN1c1cc(C2(S(C)(=N)=O)CC2)nc(-c2ccnc3[nH]ccc23)n1 (stereo not drawn)
- viability, T/C (compound 0.0316 µM): 98.7% and 99.7%
- viability, T/C (compound 0.1 µM): 98.2% and 97.2%
- viability, T/C (compound 0.316 µM): 69.6% and 68.1%
- viability, T/C (compound 1 µM): 34.2% and 28.7%
- viability, T/C (compound 3.16 µM): 19% and 19.6%
- viability, T/C (compound 10 µM): 13.1% and 12%
- pIC50 (curve of compound): 6.22 and 6.27

Compound: COc1cc(C2c3cc4c(cc3C(OC3OC5COC(C)OC5C(O)C3O)C3COC(=O)C23)OCO4)cc(OC)c1O (stereo not drawn)
- viability, T/C (compound 0.00949 µM): 89.7% and 87%
- viability, T/C (compound 0.03 µM): 92.9% and 75.5%
- viability, T/C (compound 0.0949 µM): 82.8% and 70.3%
- viability, T/C (compound 0.3 µM): 78.1% and 74.6%
- viability, T/C (compound 0.949 µM): 68.8% and 57%
- viability, T/C (compound 3 µM): 56.8% and 48.7%
- pIC50 (curve of compound): < 5.52 and 5.58

Compound: Nc1ccn(C2OC(CO)C(O)C2(F)F)c(=O)n1 (stereo not drawn)
- viability, T/C (compound 0.000949 µM): 22.8% and 20%
- viability, T/C (compound 0.003 µM): 29.2% and 27.8%
- viability, T/C (compound 0.00949 µM): 43.3% and 107%
- viability, T/C (compound 0.03 µM): 36.6% and 35.1%
- viability, T/C (compound 0.0949 µM): 37% and 34%
- viability, T/C (compound 0.3 µM): 27.9% and 29.2%
- pIC50 (curve of compound): > 9.02

Compound: O=C(c1cc(Cc2n[nH]c(=O)c3ccccc23)ccc1F)N1CCN(C(=O)C2CC2)CC1 + NC1CC1c1ccc(-c2cccc(O)c2)cc1
- pIC50 [1]: < 5.00
- pIC50 [2]: < 5.00
- pIC50 [3]: < 5.00
- pIC50 [4]: < 5.00
- pIC50 [5]: < 5.00
- viability, T/C (second compound 0.1 µM, first compound 0.0316 µM): 107%
- viability, T/C (second compound 0.1 µM, first compound 0.1 µM): 111%
- viability, T/C (second compound 0.1 µM, first compound 0.316 µM): 105%
- viability, T/C (second compound 0.1 µM, first compound 1 µM): 105%
- viability, T/C (second compound 0.1 µM, first compound 3.16 µM): 107%
- viability, T/C (second compound 0.1 µM, first compound 10 µM): 91.5%
- viability, T/C (second compound 0.316 µM, first compound 0.0316 µM): 109%
- viability, T/C (second compound 0.316 µM, first compound 0.1 µM): 113%
- viability, T/C (second compound 0.316 µM, first compound 0.316 µM): 111%
- viability, T/C (second compound 0.316 µM, first compound 1 µM): 108%
- viability, T/C (second compound 0.316 µM, first compound 3.16 µM): 102%
- viability, T/C (second compound 0.316 µM, first compound 10 µM): 97.8%
- viability, T/C (second compound 1 µM, first compound 0.0316 µM): 107%
- viability, T/C (second compound 1 µM, first compound 0.1 µM): 110%
- viability, T/C (second compound 1 µM, first compound 0.316 µM): 105%
- viability, T/C (second compound 1 µM, first compound 1 µM): 99.1%
- viability, T/C (second compound 1 µM, first compound 3.16 µM): 97.6%
- viability, T/C (second compound 1 µM, first compound 10 µM): 96%
- viability, T/C (second compound 3.16 µM, first compound 0.0316 µM): 101%
- viability, T/C (second compound 3.16 µM, first compound 0.1 µM): 105%
- viability, T/C (second compound 3.16 µM, first compound 0.316 µM): 104%
- viability, T/C (second compound 3.16 µM, first compound 1 µM): 103%
- viability, T/C (second compound 3.16 µM, first compound 3.16 µM): 95.2%
- viability, T/C (second compound 3.16 µM, first compound 10 µM): 91%
- viability, T/C (second compound 10 µM, first compound 0.0316 µM): 102%
- viability, T/C (second compound 10 µM, first compound 0.1 µM): 105%
- viability, T/C (second compound 10 µM, first compound 0.316 µM): 107%
- viability, T/C (second compound 10 µM, first compound 1 µM): 101%
- viability, T/C (second compound 10 µM, first compound 3.16 µM): 102%
- viability, T/C (second compound 10 µM, first compound 10 µM): 88.4%

Compound: Nc1ccccc1NC(=O)c1ccc(CNC(=O)OCc2cccnc2)cc1 + NC1CC1c1ccc(-c2cccc(O)c2)cc1
- pIC50 [1]: 6.45
- pIC50 [2]: 6.48
- pIC50 [3]: 6.55
- pIC50 [4]: 6.44
- pIC50 [5]: 6.58
- viability, T/C (second compound 0.1 µM, first compound 0.00949 µM): 89.5%
- viability, T/C (second compound 0.1 µM, first compound 0.03 µM): 88%
- viability, T/C (second compound 0.1 µM, first compound 0.0949 µM): 72.6%
- viability, T/C (second compound 0.1 µM, first compound 0.3 µM): 59.2%
- viability, T/C (second compound 0.1 µM, first compound 0.949 µM): 19.5%
- viability, T/C (second compound 0.1 µM, first compound 3 µM): 1.7%
- viability, T/C (second compound 0.316 µM, first compound 0.00949 µM): 93.1%
- viability, T/C (second compound 0.316 µM, first compound 0.03 µM): 95.4%
- viability, T/C (second compound 0.316 µM, first compound 0.0949 µM): 84.1%
- viability, T/C (second compound 0.316 µM, first compound 0.3 µM): 50.6%
- viability, T/C (second compound 0.316 µM, first compound 0.949 µM): 21.1%
- viability, T/C (second compound 0.316 µM, first compound 3 µM): 1.7%
- viability, T/C (second compound 1 µM, first compound 0.00949 µM): 88.3%
- viability, T/C (second compound 1 µM, first compound 0.03 µM): 89.3%
- viability, T/C (second compound 1 µM, first compound 0.0949 µM): 77.7%
- viability, T/C (second compound 1 µM, first compound 0.3 µM): 46%
- viability, T/C (second compound 1 µM, first compound 0.949 µM): 20.6%
- viability, T/C (second compound 1 µM, first compound 3 µM): 1.74%
- viability, T/C (second compound 3.16 µM, first compound 0.00949 µM): 81%
- viability, T/C (second compound 3.16 µM, first compound 0.03 µM): 87.5%
- viability, T/C (second compound 3.16 µM, first compound 0.0949 µM): 78.2%
- viability, T/C (second compound 3.16 µM, first compound 0.3 µM): 55.7%
- viability, T/C (second compound 3.16 µM, first compound 0.949 µM): 19.2%
- viability, T/C (second compound 3.16 µM, first compound 3 µM): 2.01%
- viability, T/C (second compound 10 µM, first compound 0.00949 µM): 86.2%
- viability, T/C (second compound 10 µM, first compound 0.03 µM): 78.6%
- viability, T/C (second compound 10 µM, first compound 0.0949 µM): 70.7%
- viability, T/C (second compound 10 µM, first compound 0.3 µM): 48.1%
- viability, T/C (second compound 10 µM, first compound 0.949 µM): 19.4%
- viability, T/C (second compound 10 µM, first compound 3 µM): 1.69%

Compound: CCc1c2c(nc3ccc(O)cc13)-c1cc3c(c(=O)n1C2)COC(=O)[C@]3(O)CC
- viability, T/C (compound 0.000949 µM): 42.1% and 37.3%
- viability, T/C (compound 0.003 µM): 33% and 33.4%
- viability, T/C (compound 0.00949 µM): 24.4% and 22.1%
- viability, T/C (compound 0.03 µM): 1.45% and 0.7%
- viability, T/C (compound 0.0949 µM): 0.15%
- viability, T/C (compound 0.3 µM): 0.18% and 0.21%
- pIC50 (curve of compound): > 9.02
